Measured values: patent US20250066412A1, “CRYSTAL OF 4’-SUBSTITUTED NUCLEOSIDE, PREPARATION METHOD THEREFOR, COMPOSITION CONTAINING THE SAME, AND USE THEREOF” (HENAN GENUINE BIOTECH CO., LTD., priority 2022, published 2025)
Like-named read-outs stand apart in the source and are kept apart here.

Key:
HIV [1] = conditions: cited from earlier work; for EC50: E. Michailidis et al J. Biol. Chem. 2009, read-out: HIV inhibitory activity EC50; for inhibitory activities against HIV: literature reports
[2] = crystal form stability by XRPD after heating, drying or storage; conditions: for XRPD / crystal form after heating: heated to 120° C.
[3] = at 110° C., DSC and TGA studies, background; cited from earlier work
HIV [4] = conditions: CN109893536 B; read-out: anti-HIV activity EC50; cited from earlier work
[5] = heated to 130° C. under nitrogen
[6] = vacuum drying at room temperature for 24 h
[7] = heated to 160° C. under nitrogen protection

With C#C[C@]1(CO)O[C@@H](n2cnc3c(N)ncnc32)C[C@@H]1O [EdA, 4′-ethynyl-2′-deoxyadenosine] as the molecule, how does the EC50 (HIV [1]) read?
The EC50 was 11 nM.

For [N-]=[N+]=N[C@]1(CO)O[C@@H](n2ccc(N)nc2=O)[C@@H](F)[C@@H]1O [compound (II)], which “inhibitory activities against HIV” value (HIV [1]) is on record?
The value was “significant inhibitory activities”.

With C#C[C@]1(CO)O[C@@H](n2cnc3c(N)nc(F)nc32)[C@@H](F)[C@@H]1O [type-II crystal] as the molecule, how does the “crystal form after drying” value ([2]; vacuum dried at room temperature for half an hour) read?
Its value is “transformed into a type-III crystal”.

Which weight loss (heated to 120° C.) does the source give for C#C[C@]1(CO)O[C@@H](n2cnc3c(N)nc(F)nc32)[C@@H](F)[C@@H]1O [type-XV crystal] here?
The weight loss was 2.2%.

And the “XRPD / crystal form after heating” value [2]?
The value was “the crystal form transformation occurred”.

For C#C[C@]1(CO)O[C@@H](n2cnc3c(N)nc(F)nc32)C[C@@H]1O [Compound 1], which EC50 (HIV [1]) is on record?
Its EC50 is 0.05 nM.

What about the “increase of HIV inhibitory activity by introduction of 2-fluorine” value (HIV [1]; EFdA versus EdA) of the same molecule?
Its value is 2200 times.

And the “inhibitory activities against HIV” value (HIV [1])?
The value was “significant inhibitory activities”.

What does the source list for C#C[C@]1(CO)O[C@@H](n2cnc3c(N)nc(F)nc32)[C@@H](F)[C@@H]1O [type-I crystal]?
weight loss (further heated from 110° C. to 200° C.): 3.5%; weight loss (heated to 110° C.): 13.2%; XRPD after heating ([2]; heated to 55° C. under nitrogen, cooled to room temperature, exposed to air): the diffraction peak intensity of the sample was somewhat reduced; crystal form after heating (XRPD) ([2]; heated to 100° C. under nitrogen protection): transformed into an amorphous crystal

Which weight loss (heated to 200° C.) does the source give for C#C[C@]1(CO)O[C@@H](n2cnc3c(N)nc(F)nc32)[C@@H](F)[C@@H]1O [type-III crystal] here?
The weight loss was 1.2%.

What about the “crystal form after heating (variable-temperature XRPD)” value ([2]; heated to 150° C. under nitrogen protection) of the same molecule?
The value was “the crystal form did not change”.

With C#C[C@]1(CO)O[C@@H](n2cnc3c(N)nc(F)nc32)[C@@H](F)[C@@H]1O [type-VII crystal] as the molecule, how does the weight loss (heated to 130° C.) read?
Its weight loss is 11.2%.

And the XRPD after heating [2, 5]?
Its XRPD after heating is “the crystal form was transformed”.

What does the source list for C#C[C@]1(CO)O[C@@H](n2cnc3c(N)nc(F)nc32)[C@@H](F)[C@@H]1O [type-IV crystal]?
weight loss (heated to 120° C.): 10.6%; XRPD after storage ([2]; dried crystal left closed at room temperature for about 5 days): increased relative intensity of the diffraction peaks and increased number of diffraction peaks; crystal form after heating (XRPD) ([2]; heated to 141° C. under nitrogen protection): transformed into a stable type-III crystal; XRPD after drying ([2]; vacuum dried at room temperature for 15 min): decreased relative intensity of the diffraction peaks

Which “weight loss (dehydration)” value [6] does the source give for C#C[C@]1(CO)O[C@@H](n2cnc3c(N)nc(F)nc32)[C@@H](F)[C@@H]1O [type-XVI crystal] here?
Its value is 14.39%.

What about the “crystal form after heating (XRPD)” value ([2]; heated to 55° C. in a nitrogen atmosphere, held for 2 to 24 h) of the same molecule?
Its value is “the type-XVII crystal was also obtained”.

And the “crystal form after drying” value [2, 6]?
Its value is “turned into a monohydrate crystal form”.

Which results are given for C#C[C@]1(CO)O[C@@H](n2cnc3c(N)nc(F)nc32)[C@@H](F)[C@@H]1O [type-VIII crystal]?
weight loss (heated to 160° C.): 10.6%; crystal form after heating (XRPD) [2, 7]: the crystal form had been transformed

For C#C[C@]1(CO)O[C@@H](n2cnc3c(N)nc(F)nc32)[C@@H](F)[C@@H]1O [type-XIII crystal], which “crystal form in a solvent environment” value ([2]; left in a solvent environment at room temperature) is on record?
Its value is “transformed into the type-XIV crystal”.

And the “crystal form after drying” value ([2]; left open and dried at room temperature for about 2 h)?
The value was “the crystal form was transformed”.

With C#C[C@]1(CO)O[C@@H](n2cnc3c(N)nc(F)nc32)[C@@H](F)[C@@H]1O [crystal form A] as the molecule, how does the weight loss [3] read?
The weight loss was 9.0%.

Which weight loss (further heated from 130° C. to 160° C.) does the source give for C#C[C@]1(CO)O[C@@H](n2cnc3c(N)nc(F)nc32)[C@@H](F)[C@@H]1O [type-X crystal] here?
The weight loss was 4.5%.

What about the weight loss (heated to 130° C.) of the same molecule?
Its weight loss is 7.9%.

And the “crystal form after heating (variable-temperature XRPD)” value ([2]; further heated to 145° C.)?
The value was “the crystal form was transformed”.

And the “XRPD / crystal form after heating” value [2]?
The value was “the position of the diffraction peak shifted”.

What about the XRPD after heating [2, 5] of the same molecule?
The XRPD after heating was “the diffraction peak intensity was significantly reduced”.

Which “stability of the crystal form (overall finding)” value [2] does the source give for C#C[C@]1(CO)O[C@@H](n2cnc3c(N)nc(F)nc32)[C@@H](F)[C@@H]1O [type-XIV crystal] here?
The value was “unstable intermediate state”.

And the “crystal form after removal from the solvent environment” value ([2]; room temperature)?
Its value is “transformed into the type-XIII crystal”.

With C#C[C@]1(CO)O[C@@H](n2cnc3c(N)nc(F)nc32)[C@@H](F)[C@@H]1O [type-IX crystal] as the molecule, how does the weight loss (heated to 160° C.) read?
The weight loss was 20.3%.

What about the “crystallinity after heating (XRPD)” value ([2]; heated to 95° C. under nitrogen, cooled to room temperature, exposed to air) of the same molecule?
The value was “the degree of crystallinity was further decreased”.

What about the “crystal form after heating (XRPD)” value [2, 7] of the same molecule?
The value was “its crystal form had been transformed”.

And the crystallinity after storage ([2]; left closed at room temperature for about 3 days)?
The crystallinity after storage was “a reduced degree of crystallinity”.

With C#C[C@]1(CO)O[C@@H](n2cnc3c(N)nc(F)nc32)[C@@H](F)[C@@H]1O [type-XII crystal] as the molecule, how does the weight loss (heated to 120° C.) read?
Its weight loss is 59.6%.

And the “crystal form after drying” value ([2]; vacuum dried at room temperature for 10 min)?
The value was “transformed into an amorphous crystal”.

What does the source list for C#C[C@]1(CO)O[C@@H](n2cnc3c(N)nc(F)nc32)[C@@H](F)[C@@H]1O [type-V crystal]?
weight loss (further heated from 140° C. to 240° C.): 2.8%; weight loss (heated to 140° C.): 15.4%; crystal form after heating (variable-temperature XRPD) ([2]; further heated to 154° C.): transformed into another crystal; crystal form after heating (variable-temperature XRPD) ([2]; heated to 90° C. and 130° C. under nitrogen protection): substantially transformed into an amorphous crystal; crystallinity (variable-temperature XRPD) ([2]; purged with nitrogen for about 20 min): significant decrease in degree of crystallinity

Which weight loss (heated to 120° C.) does the source give for C#C[C@]1(CO)O[C@@H](n2cnc3c(N)nc(F)nc32)[C@@H](F)[C@@H]1O [type-XI crystal] here?
Its weight loss is 19.3%.

With C#C[C@]1(CO)O[C@@H](n2cnc3c(N)nc(F)nc32)[C@@H](F)[C@@H]1O [type-VI crystal] as the molecule, how does the weight loss (further heated from 70° C. to 130° C.) read?
Its weight loss is 5.9%.

And the weight loss (heated to 70° C.)?
Its weight loss is 4.9%.

And the “crystal form after heating (XRPD)” value [2, 7]?
The value was “the crystal form was transformed”.

With C#C[C@]1(CO)O[C@@H](n2cnc3c(N)nc(F)nc32)[C@@H](F)[C@@H]1O [compound (3), (2R,3R,4S,5R)-5-(6-amino-2-fluoro-9H-purin-9-yl)-2-ethynyl-4-fluoro-2-(hydroxymethyl)tetrahydrofuran-3-ol] as the molecule, how does the EC50 (HIV [4]) read?
The EC50 was 0.9 nM.

For C#C[C@]1(CO)O[C@@H](n2cnc3c(N)nc(F)nc32)[C@@H](F)[C@@H]1O [type-XVII crystal], which weight loss (dried at 90° C. for 1 to 24 h) is on record?
The weight loss was 5.47%.

What about the change on drying ([2]; dried at 90° C. for 1 to 24 h) of the same molecule?
Its change on drying is “lost one molecule of water”.
